Data on five compounds can be found in patent US7115633B2, “Benzosuberonylpiperdine compounds as analgesics” (GlaxoSmithKline S.p.A., priority 2000, dated 2006).

Molecules are shown by their SMILES.

What is called melting point is the temperature, or range, at which the solid turns liquid.

`Cc1cccc(C2CCN(C[C@H]3CCc4c(Br)cccc4[C@H](O)C3)CC2)c1.Cl` (racemic): the melting point was more than 250 °C.
Turning to `Cl.O[C@@H]1C[C@H](CN2CCC(c3ccccc3Cl)CC2)CCc2c(F)cccc21` (racemic), the melting point lay within 245 to 247 °C.
On to `Cc1ccccc1C1CCN(CC2CCc3c(F)cccc3C(O)C2)CC1.Cl` (racemic), for which the melting point lay within 231 to 233 °C.
`Cc1cccc(C2CCN(C[C@@H]3CCc4c(C)cccc4[C@H](O)C3)CC2)c1.Cl` (racemic) returned a melting point of more than 250 °C.
The compound `Cc1cccc2c1CC[C@@H](CN1CCC(c3ccccc3Cl)CC1)C[C@H]2O.Cl` (racemic) yielded a melting point of more than 250 °C.
